Assay: mn = molality of the nth substance listed, in mol/kg
Details: 101 kPa, Liquid; for speed of sound: Linear variable-path acoustic interferometer; for mass density: Pycnometric method

CC(C)[C@H](N)C(=O)O [L-valine] + O
Details | mass density [kg/m3] | speed of sound [m/s]
275.15 K, m1 = 0.034 | 1000.99 | 1416.5
275.15 K, m1 = 0.0672 | 1001.86 | 1420.9
275.15 K, m1 = 0.1028 | 1002.93 | 1425.7
275.15 K, m1 = 0.1349 | 1003.79 | 1429.9
275.15 K, m1 = 0.1675 | 1004.61 | 1434.3
275.15 K, m1 = 0.2021 | 1005.54 | 1438.9
275.15 K, m1 = 0.233 | 1006.4 | 1443
275.15 K, m1 = 0.2667 | 1007.34 | 1447.5
275.15 K, m1 = 0.3009 | 1008.25 | 1452
275.15 K, m1 = 0.3669 | 1009.99 | 1460.8
275.15 K, m1 = 0.4066 | 1011.08 | 1466.1
279.15 K, m1 = 0.0341 | 1000.9 | 1434.1
279.15 K, m1 = 0.0671 | 1001.87 | 1438.1
279.15 K, m1 = 0.1009 | 1002.75 | 1442.1
279.15 K, m1 = 0.1418 | 1003.8 | 1447
279.15 K, m1 = 0.1696 | 1004.51 | 1450.4
279.15 K, m1 = 0.2021 | 1005.51 | 1454.3
279.15 K, m1 = 0.2382 | 1006.36 | 1458.6
279.15 K, m1 = 0.2782 | 1007.44 | 1463.4
279.15 K, m1 = 0.2983 | 1007.95 | 1465.8
279.15 K, m1 = 0.3342 | 1008.96 | 1470.2
279.15 K, m1 = 0.3652 | 1009.77 | 1473.9
279.15 K, m1 = 0.3951 | 1010.57 | 1477.5
283.15 K, m1 = 0.0341 | 1000.61 | 1450.7
283.15 K, m1 = 0.0669 | 1001.41 | 1454.2
283.15 K, m1 = 0.1015 | 1002.33 | 1458
283.15 K, m1 = 0.1349 | 1003.08 | 1461.6
283.15 K, m1 = 0.1666 | 1004.17 | 1465
283.15 K, m1 = 0.2025 | 1005.15 | 1468.9
283.15 K, m1 = 0.2321 | 1006.04 | 1472.1
283.15 K, m1 = 0.2787 | 1007.06 | 1477.1
283.15 K, m1 = 0.297 | 1007.53 | 1479.1
283.15 K, m1 = 0.3314 | 1008.49 | 1482.8
283.15 K, m1 = 0.3663 | 1009.41 | 1486.6
283.15 K, m1 = 0.3972 | 1010.11 | 1489.9

C[C@@H](O)[C@H](N)C(=O)O [L-threonine] + O
Details | mass density [kg/m3] | speed of sound [m/s]
275.15 K, m1 = 0.0337 | 1001.56 | 1415.3
275.15 K, m1 = 0.0672 | 1003.12 | 1418.7
275.15 K, m1 = 0.1009 | 1004.6 | 1422
275.15 K, m1 = 0.1338 | 1006.09 | 1425.3
275.15 K, m1 = 0.1674 | 1007.23 | 1428.6
275.15 K, m1 = 0.2002 | 1008.62 | 1431.8
275.15 K, m1 = 0.2334 | 1010.1 | 1435.1
275.15 K, m1 = 0.2689 | 1011.67 | 1438.6
275.15 K, m1 = 0.3009 | 1012.89 | 1441.8
275.15 K, m1 = 0.3345 | 1014.39 | 1445.1
275.15 K, m1 = 0.3679 | 1015.8 | 1448.4
275.15 K, m1 = 0.4054 | 1017.24 | 1452.2
279.15 K, m1 = 0.0337 | 1001.55 | 1433.1
279.15 K, m1 = 0.0671 | 1002.96 | 1436.2
279.15 K, m1 = 0.101 | 1004.52 | 1439.3
279.15 K, m1 = 0.1342 | 1005.69 | 1442.3
279.15 K, m1 = 0.1665 | 1006.97 | 1445.3
279.15 K, m1 = 0.2002 | 1008.49 | 1448.4
279.15 K, m1 = 0.235 | 1009.98 | 1451.6
279.15 K, m1 = 0.2673 | 1011.46 | 1454.5
279.15 K, m1 = 0.2996 | 1012.62 | 1457.5
279.15 K, m1 = 0.3683 | 1015.5 | 1463.8
279.15 K, m1 = 0.4005 | 1016.91 | 1466.8
283.15 K, m1 = 0.0224 | 1000.69 | 1449
283.15 K, m1 = 0.0677 | 1002.52 | 1453.1
283.15 K, m1 = 0.101 | 1004.25 | 1456.1
283.15 K, m1 = 0.1362 | 1005.58 | 1459.2
283.15 K, m1 = 0.1665 | 1006.81 | 1461.9
283.15 K, m1 = 0.2005 | 1008.32 | 1465
283.15 K, m1 = 0.2345 | 1009.56 | 1468.1
283.15 K, m1 = 0.2725 | 1011.21 | 1471.5
283.15 K, m1 = 0.2996 | 1012.33 | 1473.9
283.15 K, m1 = 0.3351 | 1013.76 | 1477.1
283.15 K, m1 = 0.3677 | 1015.01 | 1480
283.15 K, m1 = 0.3928 | 1016.16 | 1482.3

N=C(N)NCCC[C@H](N)C(=O)O [L-arginine] + O
Details | mass density [kg/m3] | speed of sound [m/s]
275.15 K, m1 = 0.0381 | 1002.25 | 1416.9
275.15 K, m1 = 0.0808 | 1004.4 | 1422.5
275.15 K, m1 = 0.1223 | 1006.6 | 1427.9
275.15 K, m1 = 0.1659 | 1008.86 | 1433.5
275.15 K, m1 = 0.2092 | 1010.74 | 1439.2
275.15 K, m1 = 0.2503 | 1012.81 | 1444.5
275.15 K, m1 = 0.2909 | 1014.82 | 1449.8
275.15 K, m1 = 0.3371 | 1017.05 | 1455.8
275.15 K, m1 = 0.3742 | 1018.75 | 1460.6
275.15 K, m1 = 0.4153 | 1020.74 | 1465.9
275.15 K, m1 = 0.4529 | 1022.49 | 1470.8
275.15 K, m1 = 0.5067 | 1024.97 | 1477.8
279.15 K, m1 = 0.0381 | 1002.12 | 1434.5
279.15 K, m1 = 0.0808 | 1004.33 | 1439.6
279.15 K, m1 = 0.1225 | 1005.88 | 1444.5
279.15 K, m1 = 0.1847 | 1009.11 | 1451.9
279.15 K, m1 = 0.2092 | 1010.49 | 1454.8
279.15 K, m1 = 0.25 | 1012.51 | 1459.7
279.15 K, m1 = 0.2932 | 1014.5 | 1464.8
279.15 K, m1 = 0.3459 | 1017.1 | 1471.1
279.15 K, m1 = 0.3742 | 1018.39 | 1474.4
279.15 K, m1 = 0.4177 | 1020.39 | 1479.6
279.15 K, m1 = 0.4601 | 1022.35 | 1484.6
279.15 K, m1 = 0.5176 | 1025.01 | 1491.4
283.15 K, m1 = 0.0379 | 1001.53 | 1451.4
283.15 K, m1 = 0.0806 | 1003.83 | 1456.3
283.15 K, m1 = 0.1228 | 1005.96 | 1461.2
283.15 K, m1 = 0.1755 | 1008.59 | 1467.2
283.15 K, m1 = 0.2052 | 1009.81 | 1470.7
283.15 K, m1 = 0.2496 | 1012.14 | 1475.8
283.15 K, m1 = 0.291 | 1014.12 | 1480.5
283.15 K, m1 = 0.3386 | 1016.31 | 1486
283.15 K, m1 = 0.3757 | 1017.99 | 1490.3
283.15 K, m1 = 0.416 | 1019.92 | 1495
283.15 K, m1 = 0.4566 | 1021.75 | 1499.6
283.15 K, m1 = 0.5031 | 1023.84 | 1505

From the NIST ThermoML archive (doi:10.1016/j.jct.2012.12.010)
